Test results as given in patent US7311918B2, “Rotavirus subunit vaccine” (Children's Hospital Medical Center, priority 1998, dated 2007).
“And” between values parts separate entries of the source, which are not always exact repeats. Equal entries are not always repeated. “Also recorded” adds a separate entry of the source. Where two headings read alike, the source gives them in different places.

What was measured:
[1] = tested on: EDIM virus (murine rotavirus); format: in vivo, BALB/c mice; settings: for Reduction in shedding: BALB/c mice
[2] = tested on: rotavirus (EDIM viral lysate); format: in vivo, BALB/c mice; settings: mice immunized with MBP::VP6; intramuscularly with QS-21 versus intranasally with LT

| Substance | Reduction in shedding ([1]; MBP::VP6 given intranasally with the adjuvant named) [%] | Reduction in shedding ([1]; MBP::VP6 given orally with the adjuvant named) [%] | Serum IgG response [2] | Mean reduction in rotavirus shedding (protection) ([1]; mouse, in vivo) | % Reduction in shedding ([1]; mouse, in vivo) [%] | Shedding per mouse per day ([1]; mouse, in vivo) | Shedding, Day 7 ([1]; mouse, in vivo) | Shedding, Day 6 ([1]; mouse, in vivo) |
| --- | --- | --- | --- | --- | --- | --- | --- | --- |
| QS-21 [reference compound] | 43 | 59 | greater IgG response | – | – | – | – | – |
| 2: one of 11 overlapping synthetic peptides (18 to 31 amino acids) of the CD region of VP6, Table 10 (PDAERFSFPRVINSADGA; Rotavirus VP6 fragment) [Peptide 2] | – | – | – | 70% | – | – | – | – |
| Peptide 3: one of 11 overlapping synthetic peptides (18 to 31 amino acids) of the CD region of VP6, Table 10 (FSFPRVINSADGATTWYFNPVILRPNNVEV; Rotavirus VP6 fragment) | – | – | – | 57% | 57 | 96 | 0 | – |
| Peptide 5: one of 11 overlapping synthetic peptides (18 to 31 amino acids) of the CD region of VP6, Table 10 (NGQVINTYQARFGTIVARNFDTIRLSFQLM; Rotavirus VP6 fragment) | – | – | – | did not elicit protection | 0 | 341 | – | – |
| 4: one of 11 overlapping synthetic peptides (18 to 31 amino acids) of the CD region of VP6, Table 10 (FNPVILRPNNVEVEFLLNGQVINTYQARF; Rotavirus VP6 fragment) [Peptide 4] | – | – | – | 77% | – | – | – | – |
| Peptide 9: one of 11 overlapping synthetic peptides (18 to 31 amino acids) of the CD region of VP6, Table 10 (VLADASETMLANVTSVRQEYAI; Rotavirus VP6 fragment) | – | – | – | did not elicit protection | 0 | 275 | – | – |
| RLSFQLMRPPNMTP [Peptide 6-14] | – | – | – | comparable protection to that of peptide 6; also recorded: nearly complete protection | – | – | – | – |
| Peptide 10: one of 11 overlapping synthetic peptides (18 to 31 amino acids) of the CD region of VP6, Table 10 (QEYAIPVGPVFPPGMNWTDLITNYSPSRED; Rotavirus VP6 fragment) | – | – | – | did not elicit protection | 0 | 1825 | 0 | – |
| Peptide 7: one of 11 overlapping synthetic peptides (18 to 31 amino acids) of the CD region of VP6, Table 10 (MTPAVTALFPNAQPFEHHATVGLTLRIDSA; Rotavirus VP6 fragment) | – | – | – | did not elicit protection | 18 | 185 | – | – |
| Peptide 11: one of 11 overlapping synthetic peptides (18 to 31 amino acids) of the CD region of VP6, Table 10 (TDLITNYSPSREDNLQRVFTVASIRSMLVK; Rotavirus VP6 fragment) | – | – | – | 64% | 64 | 80 | 0 | 30 and 29 and 41 and 36 and 23 |
| Peptide 6: 25 mer synthetic peptide of the CD region of VP6 containing the 14-amino acid sequence RLSFQLMRPPNMTP, Table 10 (RNFDTIRLSFQLMRPPNMTPAVTAL; Rotavirus VP6 fragment) | – | – | – | 88% | 88 | 27 | 0 | – |
